# Experimental data reported in publication PMC8962522, “Direct interaction of TrkA/CD44v3 is essential for NGF-promoted aggressiveness of breast cancer cells” (Journal of Experimental & Clinical Cancer Research : CR, 2022).
# Assays:
# [1] = Body weight in xenografted SCID mice; assay type: in vivo; settings: 10 mice per group; injections near the tumor
# Procedure: (§1) MDA-MB-231 cells (2 × 10^6) were subcutaneously injected into the flanks of six-week-old female SCID mice. One month after injection, the mice were randomized into 2 groups and injected near the tumor with CD44v3 mimetic peptide 4 (P4) or not (control) five times in a 3-day interval. Tumor volume was determined throughout the experiment by measuring the length (l) and width (w) and was calculated as π/6 × l × w × […]. Animals were sacrificed using isoflurane anesthesia when the tumors reached a similar size, and the organs were immediately removed and stored in liquid nitrogen.
# Fig. 6 CD44v3 mimetic peptide 4 blocks MDA-MB-231 tumor growth and metastasis. Schematic representation of the experimental setup for MDA-MB-231 tumor growth assessment in SCID mice (A). Body weight (B) and tumor volume (C) were measured following CD44v3 mimetic peptide administration (10 mice per group). Schematic representation of the experimental setup for MDA-MB-231 metastasis assessment in SCID mice (D). Percentage of metastasis-positive lungs, brains and livers (E) after scramble peptide or CD44v3 mimetic peptide 4 treatment (3 mice/group) or (F) after TrkA-H112 mutant treatment (6 mice) compared with HA-TrkA cells (5 mice). ** p < 0.01; ns, nonsignificant. […]
# [2] = tested on: MDA-MB-231 cell metastasis; experiment: Metastasis of MDA-MB-231 xenografts (PCR of human microglobulin); assay type: in vivo, SCID mice; settings: lung, brain and liver; mice sacrificed when primary tumors reached the same size
# Procedure: as §1
# Each organ was placed in a Precellys tube with QIAzol (1 mL) for lysis using a Precellys machine (3×). […]
# To assess the role of TrkA/CD44v3 in vivo, SCID mice were injected with MDA-MB-231 cells to generate xenografts. Primary tumor development and metastasis (to the lung, brain and liver) were analyzed (Fig. 6). […] The development of primary tumors was measured throughout the experiments. […] We also assessed the metastatic burden. […] Micrometastases were detected at the end of the experiment by PCR of human microglobulin in xenograft mice treated with or without the CD44v3 mimetic peptide (Fig. 6E). […]
# Fig. 6 CD44v3 mimetic peptide 4 blocks MDA-MB-231 tumor growth and metastasis. […] Body weight (B) and tumor volume (C) were measured following CD44v3 mimetic peptide administration (10 mice per group). […]
sequence,measurement,setting,value
"IDDDEDFISST [Peptide 4, mimetic peptide 4 (…) corresponding to the C-terminal region of CD44v3]",body weight (in words),[1],did not affect the overall body weight of the mice
same,metastatic burden (in words),[2],decreased the metastatic burden at each analyzed location
